{"source": "patent US8961930B2", "about": "“Isatin derivatives for use as in vivo imaging agents” (Imperial Innovations Limited, priority 2008, dated 2015)", "key": {"[1]": {"test_system": "caspase-3 cognate target poly(ADP-ribose) polymerase (PARP)", "experiment": "Cellular activity: PARP cleavage immunoblot in cisplatin-treated RIF-1 cells", "type": "cell-based, murine", "settings": "15 min pre-incubation, cisplatin 100 μM 48 h", "source_text": "The Δ-PARP immunoblot band corresponds to the endogenous 89 kDa large fragment of PARP resulting from caspase 3 cleavage. α-tubulin was used as a loading control."}, "RIF-1 cells": {"test_system": "RIF-1 cells", "experiment": "In vitro [^18F]11 uptake in RIF-1 cells", "type": "cell-based, murine", "source_text": "(§1) The human ovarian carcinoma cell lines PEO1/4 were established and characterised as described in Wolf C. R. et al.^22 and Langdon S. P. et al^23. Briefly, PEO1/4 cells were derived from the malignant ascites of a patient with a recurrent mucinous ovarian adenocarcinoma, before (PEO1) and after (PEO4) the onset of a clinical resistance to cisplatin chemotherapy in this patient. The radiation-induced murine fibrosarcoma (RIF-1) tumour cell line was originally characterised by Twentyman P. R. et al.^20. The LNM35 tumour cells are a highly lymphogenous metastatic subline of the human large pulmonary carcinoma NCI-H460 cell line, as described in Kozaki K. et al.^24. […]\nCells were plated in triplicate in 12-well plates 2 or 3 days prior to the experiments and treated with the antineoplastic platinum-derived drug Cisplatin, 5-FU, the protein synthesis inhibitor cycloheximide (CHX) or the topoisomerase inhibitor etoposide (VP-16) (Sigma, UK) or corresponding vehicle at the indicated concentration and time. […] 260 μL of each sample were transferred in counting tubes and Fluorine-18 radioactivity was immediately determined using a Packard Cobra II gamma counter (Perkin Elmer, UK). […] BCA Protein assay (Pierce, UK) was performed for all samples and datas are normalized and expressed as CCPMA or RLU (Relative Light Unit)/mg of protein. […]"}, "[2]": {"test_system": "38C13 murine lymphoma xenograft", "experiment": "Biodistribution of [^18F]11 in 38C13 xenograft-bearing mice after PET scan", "type": "in vivo, C3H/hej mice", "design": "Biodistribution, Lung: unit not given here", "description": "The in vivo experimental model of tumour apoptosis was established by subcutaneous injection of 38C13 murine lymphoma cells (5000 cells) on the back of 6-8 weeks old male C3H/hej mice (Harlan, Bicester, Oxfordshire, UK). When xenografts reached ˜100 mm3, the mice were treated with cyclophosphamide (CPA, 100 mg/kg) or vehicle for 24 h and then scanned on a dedicated small animal PET scanner (Siemens Inveon PET module). Anesthetized animals were placed within a thermostatically controlled bed and positioned prone within the scanner. A bolus injection of [^18F]11 (˜100 μCi) was given intravenously (i.v.) via the tail vein cannula and scanning commenced.\nDynamic emission scans were acquired in list-mode format over 60 minutes. The acquired data were then sorted into 0.5-mm sinogram bins and 19 time frames for image reconstruction, which was done by filtered back projection. The image data-sets obtained were visualized using the Siemens Inveon Research Workplace software. Cumulative images of the dynamic data were used for visualization of radiotracer uptake and to define the regions of interest (ROI). The count densities were averaged for each ROI at each of the 19 time points to obtain a time versus radioactivity curve (TAC) for the ROIs (see FIG. 15).\nTumour TAC was normalized to that of whole body at each of the time points to obtain the normalized uptake value (NUV).\nAfter the scan, the different tissues were removed, weighted and placed in tubes for immediate Fluorine-18 radioactivity counting to assess the [^18F]11 biodistribution (See Table 4, below)."}, "LNM35 cells": {"test_system": "LNM35 cells", "experiment": "In vitro [^18F]11 uptake in LNM35 cells", "type": "cell-based, human", "settings": "100 μM CDDP or VP-16, 60 min uptake", "source_text": "as §1\nCells were plated in triplicate in 12-well plates 2 or 3 days prior to the experiments and treated with the antineoplastic platinum-derived drug Cisplatin, 5-FU, the protein synthesis inhibitor cycloheximide (CHX) or the topoisomerase inhibitor etoposide (VP-16) (Sigma, UK) or corresponding vehicle at the indicated concentration and time. […] 260 μL of each sample were transferred in counting tubes and Fluorine-18 radioactivity was immediately determined using a Packard Cobra II gamma counter (Perkin Elmer, UK). […] BCA Protein assay (Pierce, UK) was performed for all samples and datas are normalized and expressed as CCPMA or RLU (Relative Light Unit)/mg of protein."}}}
{"compound": "O=C1C(=O)N(Cc2cn(CCF)nn2)c2ccc(S(=O)(=O)N3CCC[C@H]3COc3ccc(F)cc3F)cc21", "note": "[Compound 11, (S)-1-((1-(2-Fluoroethyl)-1H-[1,2,3]-triazol-4-yl)methyl)-5-(2(2,4-difluorophenoxymethyl)-pyrrolidine-1-sulfonyl)isatin]", "values": [{"measurement": "effect on induction of cleaved PARP by cisplatin induced apoptosis", "setting": "[1]", "value": "disrupted the induction of caspase-3 cognate target PARP by cisplatin induced apoptosis"}]}
{"compound": "O=C1C(=O)N(Cc2cn(CC[18F])nn2)c2ccc(S(=O)(=O)N3CCC[C@H]3COc3ccc(F)cc3F)cc21", "note": "[[^18F]11, (S)-1-((1-(2-Fluoroethyl)-1H-[1,2,3]-triazol-4-yl)methyl)-5-(2(2,4-difluorophenoxymethyl)-pyrrolidine-1-sulfonyl)isatin]", "values": [{"measurement": "increase in uptake in apoptotic cells", "setting": "RIF-1 cells; CDDP 100 μM 48 h vs vehicle, 1 h incubation", "value": "~1.5", "unit": "fold"}, {"measurement": "[^18F]11 uptake in drug-treated cells compared to control", "setting": "RIF-1 cells; CDDP or CHX 10 μg/mL 24 h, 60 min uptake", "value": "significantly increased"}, {"measurement": "increase in uptake in tumours of CPA-treated mice compared to the vehicle", "setting": "[2]; 38C13 xenograft, CPA 100 mg/kg 24 h", "value": 2, "unit": "fold"}, {"measurement": "Biodistribution, Blood", "setting": "[2]; CPA", "value": "1.00 ± 0.00", "unit": "% ID Tumour/blood ratio"}, {"measurement": "Biodistribution, Blood", "setting": "[2]; Vehicle", "value": "1.00 ± 0.00", "unit": "% ID Tumour/blood ratio"}, {"measurement": "Biodistribution, Bone", "setting": "[2]; CPA", "value": "0.93 ± 0.07", "unit": "% ID Tumour/blood ratio"}, {"measurement": "Biodistribution, Bone", "setting": "[2]; Vehicle", "value": "0.87 ± 0.10", "unit": "% ID Tumour/blood ratio"}, {"measurement": "Biodistribution, Brain", "setting": "[2]; CPA", "value": "0.23 ± 0.03", "unit": "% ID Tumour/blood ratio"}, {"measurement": "Biodistribution, Brain", "setting": "[2]; Vehicle", "value": "0.24 ± 0.02", "unit": "% ID Tumour/blood ratio"}, {"measurement": "Biodistribution, Feces", "setting": "[2]; CPA", "value": "8.46 ± 0.91", "unit": "% ID Tumour/blood ratio"}, {"measurement": "Biodistribution, Feces", "setting": "[2]; Vehicle", "value": "13.28 ± 2.37", "unit": "% ID Tumour/blood ratio"}, {"measurement": "Biodistribution, Heart", "setting": "[2]; CPA", "value": "1.43 ± 0.16", "unit": "% ID Tumour/blood ratio"}, {"measurement": "Biodistribution, Heart", "setting": "[2]; Vehicle", "value": "1.31 ± 0.10", "unit": "% ID Tumour/blood ratio"}, {"measurement": "Biodistribution, Kidney", "setting": "[2]; CPA", "value": "7.23 ± 0.47", "unit": "% ID Tumour/blood ratio"}, {"measurement": "Biodistribution, Kidney", "setting": "[2]; Vehicle", "value": "7.21 ± 0.33", "unit": "% ID Tumour/blood ratio"}, {"measurement": "Biodistribution, L. Intestine", "setting": "[2]; CPA", "value": "2.78 ± 0.64", "unit": "% ID Tumour/blood ratio"}, {"measurement": "Biodistribution, L. Intestine", "setting": "[2]; Vehicle", "value": "6.07 ± 0.62", "unit": "% ID Tumour/blood ratio"}, {"measurement": "Biodistribution, Liver", "setting": "[2]; CPA", "value": "14.17 ± 1.55", "unit": "% ID Tumour/blood ratio"}, {"measurement": "Biodistribution, Liver", "setting": "[2]; Vehicle", "value": "10.60 ± 0.75", "unit": "% ID Tumour/blood ratio"}, {"measurement": "Biodistribution, Lung", "setting": "[2]; CPA", "value": "5.49 ± 0.66"}, {"measurement": "Biodistribution, Lung", "setting": "[2]; Vehicle", "value": "4.27 ± 0.13"}, {"measurement": "Biodistribution, Muscle", "setting": "[2]; CPA", "value": "1.20 ± 0.07", "unit": "% ID Tumour/blood ratio"}, {"measurement": "Biodistribution, Muscle", "setting": "[2]; Vehicle", "value": "1.22 ± 0.07", "unit": "% ID Tumour/blood ratio"}, {"measurement": "Biodistribution, Plasma", "setting": "[2]; CPA 100 mg/kg 24 h, 38C13 xenograft", "value": "1.90 ± 0.09", "unit": "% ID Tumour/blood ratio"}, {"measurement": "Biodistribution, Plasma", "setting": "[2]; Vehicle, 38C13 xenograft", "value": "1.98 ± 0.23", "unit": "% ID Tumour/blood ratio"}, {"measurement": "Biodistribution, S. Intestine", "setting": "[2]; CPA", "value": "83.12 ± 70.19", "unit": "% ID Tumour/blood ratio"}, {"measurement": "Biodistribution, S. Intestine", "setting": "[2]; Vehicle", "value": "291.61 ± 28.68", "unit": "% ID Tumour/blood ratio"}, {"measurement": "Biodistribution, Spleen", "setting": "[2]; CPA", "value": "1.81 ± 0.37", "unit": "% ID Tumour/blood ratio"}, {"measurement": "Biodistribution, Spleen", "setting": "[2]; Vehicle", "value": "2.30 ± 0.38", "unit": "% ID Tumour/blood ratio"}, {"measurement": "Biodistribution, Stomach", "setting": "[2]; CPA", "value": "1.62 ± 0.19", "unit": "% ID Tumour/blood ratio"}, {"measurement": "Biodistribution, Stomach", "setting": "[2]; Vehicle", "value": "1.95 ± 0.00", "unit": "% ID Tumour/blood ratio"}, {"measurement": "Biodistribution, Tumour", "setting": "[2]; CPA", "value": "1.24 ± 0.11", "unit": "% ID Tumour/blood ratio"}, {"measurement": "Biodistribution, Tumour", "setting": "[2]; Vehicle", "value": "0.83 ± 0.10", "unit": "% ID Tumour/blood ratio"}, {"measurement": "Biodistribution, Urine", "setting": "[2]; CPA", "value": "43.64 ± 12.24", "unit": "% ID Tumour/blood ratio"}, {"measurement": "Biodistribution, Urine", "setting": "[2]; Vehicle", "value": "116.71 ± 19.47", "unit": "% ID Tumour/blood ratio"}, {"measurement": "[^18F]11 uptake in drug-treated cells compared to control", "setting": "LNM35 cells", "value": "significantly increased"}]}
